Source: patent publication US20150224157A1, “PROCESS FOR THE PREPARATION OF HERBAL EXTRACT OF CASSIA TORA LEAVES FOR TREATING ANXIETY DISORDERS” (priority 2009, published 2015)

Key:
[1] = cited from earlier work
Swiss Albino male mice = assay: Elevated plus maze test in mice; format: in vivo; details: Diazepam 1.5 mg/kg p.o.
Description: 1. Animals: Swiss Albino male mice 20-25 gm body weights were procured from Laboratory Animal Services Division of Central Drug Research Institute, Lucknow. All animals were kept in polyacrylic cage in environmentally controlled rooms (temperature 24-27° C. and humidity 60-65% with 12:12 light:dark cycle). Food was provided in the form of dry pellets and water ad libitum. Each animal was used only once in the behavioral tests and were habituated with the experimental room one day prior to the experiment All experiments involving animals complies with the ethical standards of animal handling and approved by Institutional Animal Ethics Committee.
Treatment of animals: Diazepam was diluted in distilled water, administered by […]. The extract was dissolved in 0.5% gum acacia suspension and administered by oral route.
Elevated plus maze test in mice: This test was used to evaluate the anti-anxiety activity. The test is based on the principal of conflict between exploration and fear of open/or closed arms. Apparatus consists of a raised stainless steel maze of four arms arranged in ‘+’ sign. Two of opposite arms are enclosed by raised walls whereas other arms are kept open. All the four arms consist of infrared beams at regular distance. The movement of animal across the arms is calculated by interruption of beams, which was analyzed by Maze Tracking Software (M/s. Columbus Instruments, USA). The trial was started by placing an animal on the central platform of the maze facing an open arm. Animals were given a period of 2 min to acclimatize with its surroundings. The time spent in each of the two types of arm was recorded during the next 5 min test period. The percentage open arm time were used as index of anxiety. The apparatus was cleaned thoroughly between trials with damp and dry towels.
Diazepam (1.5 mg/kg) and the Cassia tora leaves extract (100 mg/kg) was orally administered one hour prior to the experiment.

[2] = dose of 0.2 mg/mL; cited from earlier work
[3] = system: aflatoxin B-1-8,9-epoxide formation; details: cited from earlier work

CC1=CCC(O)(C(C)C)CC1 (stereo not drawn) [4-terpineol]
IC50 against hydroxyl radicals [1]: 87.5 mu g/mL

CN1C(=O)CN=C(c2ccccc2)c2cc(Cl)ccc21 [Diazepam]
percentage of time spent in open arms in comparison to saline treated control mice (Swiss Albino male mice; extract 100 mg/kg p.o., P<0.01): significant increase | % time spent in open arms (Swiss Albino male mice; mice, extracts 100 mg/kg p.o.): 23.38% | Time spent in open arms (secs) out of 300 secs (Swiss Albino male mice; mice, extracts 100 mg/kg p.o., one hour prior, Mean ± SEM): 70.16 ± 4.09 s

Cc1c(C)c2c(c(C)c1O)CC[C@@](C)(CCC[C@H](C)CCC[C@H](C)CCCC(C)C)O2 [alpha-tocopherol]
inhibition of peroxidation of linoleic acid [2]: 82%

O=C1c2ccc(O)cc2C(=O)c2ccc(O)cc21 [anthraflavine]
IC50 [3]: 26.9 µM

O=C1c2cccc(O)c2C(=O)c2cccc(O)c21 [anthrarufm, anthrarufin]
IC50 [3]: 11.5 µM

O=c1c(O)c(-c2ccc(O)c(O)c2)oc2cc(O)cc(O)c12 [quercetin]
IC50 against hydroxyl radicals [1]: 8.15 mu g/mL

O=C1c2ccccc2C(=O)c2c(O)ccc(O)c21 [quinizarin]
IC50 [3]: 4.12 µM
